Values of other authors, collected in patent EP4616878A1, “CANNULA FOR RECTAL ADMINISTRATION OF AN ENEMA AND COMPOSITIONS FOR USE THEREWITH” (Cosmo Technologies Ltd., priority 2024, dated 2025).

How the values were obtained:
[1] = in vivo
[2] = tested on: nuclear factor-KB (NFκB); conditions: cell line which lacks PXR expression
[3] = molecular target: T1, pregnane X receptor (PXR) (Homo sapiens, UniProt O75469); conditions: liver and intestinal cell lines; also downstream targets CYP3A4 and PgP
T1 sequence (O75469 1-434): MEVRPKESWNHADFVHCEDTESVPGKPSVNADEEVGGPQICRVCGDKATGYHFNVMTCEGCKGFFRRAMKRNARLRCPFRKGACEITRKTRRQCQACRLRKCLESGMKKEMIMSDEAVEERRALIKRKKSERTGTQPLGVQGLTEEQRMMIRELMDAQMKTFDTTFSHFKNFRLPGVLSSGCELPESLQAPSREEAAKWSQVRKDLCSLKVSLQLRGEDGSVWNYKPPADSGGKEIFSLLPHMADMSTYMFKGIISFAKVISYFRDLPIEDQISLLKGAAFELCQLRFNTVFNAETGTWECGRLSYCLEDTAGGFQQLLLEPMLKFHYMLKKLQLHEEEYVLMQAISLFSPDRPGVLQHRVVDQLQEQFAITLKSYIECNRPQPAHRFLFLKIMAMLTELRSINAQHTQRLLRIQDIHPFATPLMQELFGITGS

CO[C@H]1/C=C/O[C@@]2(C)Oc3c(C)c(O)c4c(O)c(cc(O)c4c3C2=O)NC(=O)/C(C)=C\C=C\[C@H](C)[C@H](O)[C@@H](C)[C@@H](O)[C@@H](C)[C@H](OC(C)=O)[C@@H]1C [Rifamycin, Rifamycin SV]
absorption in the bloodstream [1]: negligible | effect on NFκB [2]: directly inhibited | effect on PXR [3]: activate
